The values below come from ChEMBL document CHEMBL3046573, “Baseline sensitivity of Pestalotiopsis microspora, which causes black spot disease on Chinese hickory (Carya cathayensis), to pyraclostrobin” (Crop Prot, 2012).

Experiment [1] deals with Pestalotiopsis microspora. The experiment can be described thus: Fungicidal activity against Pestalotiopsis microspora infected Chinese hickory orchards assessed as mycelial growth inhibition at 25 degC after 5 days. The experiment is classed as functional, organism-based. The conditions noted are these: 120 h.
Experiment [2] has as its system Pestalotiopsis microspora. The experiment can be described thus: Fungicidal activity against Pestalotiopsis microspora infected in Chinese hickory orchards assessed as conidium germination inhibition at 25 degC after 24 hr. It counts as functional, organism-based.
Experiment [3] concerns Pestalotiopsis microspora. Nature of the experiment: Resistance factor, ratio of EC50 for pyraclostrobin-resistant mutant Pestalotiopsis microspora isolate LA1R2 to EC50 for wild type Pestalotiopsis microspora isolate LA-1. It counts as functional.
In experiment [4] the test system is Pestalotiopsis microspora. The experiment can be described thus: Fungicidal activity against pyraclostrobin-resistant mutant Pestalotiopsis microspora isolate CA8R2 assessed as conidium germination inhibition at 25 degC. It counts as functional, organism-based.
Experiment [5] relates to Pestalotiopsis microspora. The experiment can be described thus: Fungicidal activity against pyraclostrobin-resistant mutant Pestalotiopsis microspora isolate CA8R3 assessed as conidium germination inhibition at 25 degC. The experiment is classed as functional, organism-based.
The test system of experiment [6] is Pestalotiopsis microspora. Nature of the experiment: Resistance factor, ratio of EC50 for pyraclostrobin-resistant mutant Pestalotiopsis microspora isolate CA8R3 to EC50 for wild type Pestalotiopsis microspora isolate CA-8. The experiment is classed as functional.
For experiment [7], the system named is Pestalotiopsis microspora. Nature of the experiment: Fungicidal activity against wild type Pestalotiopsis microspora isolate LA-1 assessed as conidium germination inhibition at 25 degC. The experiment is classed as functional, organism-based.
The test system of experiment [8] is Pestalotiopsis microspora. Nature of the experiment: Resistance factor, ratio of EC50 for pyraclostrobin-resistant mutant Pestalotiopsis microspora isolate LA1R1 to EC50 for wild type Pestalotiopsis microspora isolate LA-1. It counts as functional.
In experiment [9] the test system is Pestalotiopsis microspora. The experiment can be described thus: Fungicidal activity against Pestalotiopsis microspora isolates infected Chinese hickory orchards by conidium germination test. It counts as functional, organism-based.
For experiment [10], the system named is Pestalotiopsis microspora. Nature of the experiment: Resistance factor, ratio of EC50 for pyraclostrobin-resistant mutant Pestalotiopsis microspora isolate CA8R1 to EC50 for wild type Pestalotiopsis microspora isolate CA-8. The experiment is classed as functional.
For experiment [11], the system named is Pestalotiopsis microspora. The experiment can be described thus: Fungicidal activity against pyraclostrobin-resistant mutant Pestalotiopsis microspora isolate CA8R1 assessed as conidium germination inhibition at 25 degC. It counts as functional, organism-based.
In experiment [12] the test system is Pestalotiopsis microspora. Nature of the experiment: Fungicidal activity against pyraclostrobin-resistant mutant Pestalotiopsis microspora isolate LA1R2 assessed as conidium germination inhibition at 25 degC. The experiment is classed as functional, organism-based.
Experiment [13] deals with Pestalotiopsis microspora. Nature of the experiment: Resistance factor, ratio of EC50 for pyraclostrobin-resistant mutant Pestalotiopsis microspora isolate CA8R2 to EC50 for wild type Pestalotiopsis microspora isolate CA-8. The experiment is classed as functional.
In experiment [14] the test system is Pestalotiopsis microspora. Nature of the experiment: Fungicidal activity against wild type Pestalotiopsis microspora isolate CA-8 assessed as conidium germination inhibition at 25 degC. The experiment is classed as functional, organism-based.
Experiment [15] has as its system Pestalotiopsis microspora. Nature of the experiment: Fungicidal activity against pyraclostrobin-resistant mutant Pestalotiopsis microspora isolate LA1R1 assessed as conidium germination inhibition at 25 degC. The experiment is classed as functional, organism-based.

Each structure is given as a SMILES string. In brackets after ≈: the same amount, converted by molar mass.

In general, EC50 refers to the concentration that produces a half-maximal response. On to `CC12CC1(C)C(=O)N(c1cc(Cl)cc(Cl)c1)C2=O` (configuration not stated) [PROCYMIDONE], for which the EC50 in experiment [1] amounted to 1.68 µg/mL (≈ 5.91 µM); in experiment [2], 12 µg/mL (≈ 42.3 µM).

Regarding `N#Cc1c(Cl)c(Cl)c(Cl)c(C#N)c1Cl` [CHLOROTHALONIL], the concentration giving a half-maximal response (EC50) in [1] was 2.08 µg/mL (≈ 7.82 µM); in experiment [2], 3.05 µg/mL (≈ 11.5 µM).

Turning to `CC(=O)O.CCCCCCCCCCCCNC(=N)N` [DODINE], the 50% effective concentration (EC50) in experiment [1] turned out to be 27 µg/mL; in experiment [2], 32.7 µg/mL.

In the case of `COC(=O)N(OC)c1ccccc1COc1ccn(-c2ccc(Cl)cc2)n1` [PYRACLOSTROBIN], the “Ratio EC50” value in experiment [3] amounted to 406; in experiment [6], 106; in experiment [8] it was 179; in [10] it was 204; in experiment [13] it was 240. Besides, the EC50 in [4] was 9.59 µg/mL (≈ 24.7 µM); in [1] it was 0.92 µg/mL (≈ 2.37 µM); in experiment [5] it was 4.25 µg/mL (≈ 11 µM); in experiment [7] it was 0.03 µg/mL (≈ 0.0774 µM); in [9], 0.13 µg/mL (≈ 0.335 µM); in experiment [11], 8.17 µg/mL (≈ 21.1 µM). In addition, the EC50 in [12] worked out at 12.2 µg/mL (≈ 31.4 µM); in experiment [14], 0.04 µg/mL (≈ 0.103 µM); in experiment [15] it was 5.67 µg/mL (≈ 14.6 µM); in [2] it was 0.08 µg/mL (≈ 0.206 µM).

As for `CC(C)NC(=O)N1CC(=O)N(c2cc(Cl)cc(Cl)c2)C1=O` [IPRODIONE], the EC50 in [1] was 2.03 µg/mL (≈ 6.15 µM); in [2] it was 9.87 µg/mL (≈ 29.9 µM).

For the compound `O=C(Nc1ccccc1-c1ccc(Cl)cc1)c1cccnc1Cl` [BOSCALID], the “Ratio EC50” value in [3] is 1.02; in experiment [6], 1.05; in experiment [8], 0.98; in experiment [10] it was 0.97; in experiment [13] it was 0.95. In addition, the concentration for a half-maximal effect (EC50) in experiment [4] was found to be 17.7 µg/mL (≈ 51.6 µM); in [1], 167 µg/mL (≈ 486 µM); in experiment [5], 19 µg/mL (≈ 55.4 µM); in [7] it was 20.1 µg/mL (≈ 58.6 µM); in experiment [11], 18.1 µg/mL (≈ 52.7 µM); in experiment [12] it was 20.6 µg/mL (≈ 60 µM). Further, the EC50 in experiment [14] was 18.6 µg/mL (≈ 54.2 µM); in [15] it was 19.7 µg/mL (≈ 57.4 µM); in experiment [2], 23.9 µg/mL (≈ 69.7 µM).

Regarding `CO/C=C(/C(=O)OC)c1ccccc1Oc1cc(Oc2ccccc2C#N)ncn1` [AZOXYSTROBIN], the “Ratio EC50” value in experiment [3] is 38.16; in [6], 20.25; in experiment [8] it was 14.94; in experiment [10], 22.75; in [13], 28.82. Besides, the EC50 in [4] is 21.9 µg/mL (≈ 54.3 µM); in experiment [1], 2.61 µg/mL (≈ 6.47 µM); in experiment [5] it was 15.4 µg/mL (≈ 38.2 µM); in [7], 0.32 µg/mL (≈ 0.793 µM); in [11] it was 17.3 µg/mL (≈ 42.9 µM); in experiment [12] it was 12.2 µg/mL (≈ 30.3 µM). In addition, the values for the EC50 in [14], in [15] and in experiment [2] were 0.76 µg/mL (≈ 1.88 µM), 4.78 µg/mL (≈ 11.8 µM) and 1.36 µg/mL (≈ 3.37 µM), respectively.

With `CC(C)(C)C(O)(CCc1ccc(Cl)cc1)Cn1cncn1` (configuration not stated) [TEBUCONAZOLE], the EC50 in experiment [1] is 1.42 µg/mL (≈ 4.61 µM); in [2], 20.1 µg/mL (≈ 65.3 µM).

As for `CC1COC(Cn2cncn2)(c2ccc(Oc3ccc(Cl)cc3)cc2Cl)O1` (configuration not stated) [DIFENOCONAZOLE], the EC50 is 4.27 µg/mL (≈ 10.5 µM) in experiment [1] and 28.5 µg/mL (≈ 70.1 µM) in experiment [2].

Turning to `COC(=O)NC(=S)Nc1ccccc1NC(=S)NC(=O)OC` [THIOPHANATE METHYL], the concentration for a half-maximal effect (EC50) came to 1.45 µg/mL (≈ 4.23 µM) in experiment [1] and 25.7 µg/mL (≈ 75 µM) in experiment [2].
